Reference: patent EP3456336B1, “A CELERY SEED AND SOPHORA FLOWER BUD EXTRACT AND MEDICAL USE THEREOF” (Beijing Tianheng Junwei Pharmaceutical Tech Co., Ltd, priority 2016, dated 2017)

Assays:
Type in all cases: in vivo, SD rats
Conditions in all cases: Benzbromarone group 20 mg/kg
[1] = test system: xanthine oxidase (XOD); assay: Serum xanthine oxidase activity in hyperuricemia model rats (enzymatic colorimetric method)
Protocol: (§1) SD rats were stratified by weight using random number table method, and each layer was divided into a normal group (10 rats), a fructose modeling group (50 rats) and a purine modeling group (24 rats) using random number table method. Tap water was administered to the normal group; a 10% (w/v) fructose solution was administered to the fructose modeling group for modeling; and for the purine modeling group, tap water was administered for drinking, 500 mg/kg of hypoxanthine + 100 mg/kg of nicotinic acid was administered by gastric perfusion according to body weight once a day, and the volume of perfusion was 10 ml/kg. The food and water consumption of rats were recorded daily, the body weights were weighed every 7 days, and blood was taken by shearing the tail tip on the next day of weighing. […] Table 1 Gastric perfusion dosages of rats in each group Every 7 days during the experiment, the body weights of the animals were weighed and recorded, blood was taken from the tail vein, and serum was separated by centrifugation. The uric acid (UA), urea nitrogen (BUN), creatinine (CRE), xanthine oxidase (XOD), adenosine deaminase (ADA) and guanine deaminase (GuDa) in serum were detected. […] In the presence of an electron acceptor and a developer, a purple red conjugate was produced, and the activity of xanthine oxidase could be calculated according to the amount of the latter produced. […]

[2] = test system: hyperuricemia model; assay: Serum urea nitrogen (urease method) and serum creatinine (picric acid method) in hyperuricemia model rats
Protocol: (§2) SD rats were stratified by weight using random number table method, and each layer was divided into a normal group (10 rats), a fructose modeling group (50 rats) and a purine modeling group (24 rats) using random number table method. Tap water was administered to the normal group; a 10% (w/v) fructose solution was administered to the fructose modeling group for modeling; and for the purine modeling group, tap water was administered for drinking, 500 mg/kg of hypoxanthine + 100 mg/kg of nicotinic acid was administered by gastric perfusion according to body weight once a day, and the volume of perfusion was 10 ml/kg. The food and water consumption of rats were recorded daily, the body weights were weighed every 7 days, and blood was taken by shearing the tail tip on the next day of weighing. […] Among them, 0.5% CMC-Na was administered to the normal group and the model group by gastric perfusion, and respective drugs dissolved in 0.5% CMC-Na were administered to the other administration groups by gastric perfusion. The perfusion was performed once every morning. […] During the experiment, since there was no significant difference in blood uric acid level between the purine modeling group and the normal group from beginning to end, the modeling of the hyperuricemia model in rats was not successful, therefore, the rats were not further grouped. Table 1 Gastric perfusion dosages of rats in each group Every 7 days during the experiment, the body weights of the animals were weighed and recorded, blood was taken from the tail vein, and serum was separated by centrifugation. The uric acid (UA), urea nitrogen (BUN), creatinine (CRE), xanthine oxidase (XOD), adenosine deaminase (ADA) and guanine deaminase (GuDa) in serum were detected. On day 35 of the experiment, the 24-hour urine of the rats was collected, the urine volume was measured, the pH value was determined, and the urinary uric acid level, urinary creatinine level, and urinary urea nitrogen level were detected. After the experiment was terminated, the rats were sacrificed, and the right kidneys were taken and weighed. The specific determination method of each index was as follows. • ① Detecting serum uric acid and urinary uric acid by uricase colorimetric method: uric acid was catalyzed by uricase to produce allantoin and hydrogen peroxide (H2O2); […] A serum or urine sample was taken. […] Jaffe reaction occurred between the creatinine in the supernatant of serum from which protein was removed or the creatinine in clear urine and picric acid to produce an orange adduct. A serum or urine sample was taken. […] A serum or urine sample was taken. […] In the presence of an electron acceptor and a developer, a purple red conjugate was produced, and the activity of xanthine oxidase could be calculated according to the amount of the latter produced. A serum sample was taken. According to the operating instruction of Xanthine Oxidase Assay Kit, under the conditions of a cuvette the light path of 1 cm and a wavelength of 530 nm, double distilled water was used for zero calibration; the absorbance was determined by a UV spectrophotometer, and the activity of xanthine oxidase was obtained. • ⑤ Detecting adenosine deaminase (ADA) by enzymatic colorimetric method: adenine riboside was catalyzed by adenosine deaminase to hydrolyze and produce hypoxanthine riboside and ammonia, and the produced ammonia was developed. Therefore, the activity of serum adenosine deaminase could be calculated. A serum sample was taken. […]

[3] = test system: hyperuricemia model; assay: 24-hour urine indices on day 35 in hyperuricemia model rats (volume, pH, uric acid, creatinine, urea nitrogen, clearances); set-up: Uric acid clearance / Creatinine clearance: unit not given here
Protocol: as §2

[4] = test system: hyperuricemia model; assay: Uric acid reducing effect: serum uric acid in high-fructose hyperuricemia model rats (uricase colorimetric method)
Protocol: as §2

[5] = test system: adenosine deaminase (ADA); assay: Serum adenosine deaminase activity in hyperuricemia model rats (enzymatic colorimetric method)
Protocol: as §1

[6] = Body weight of rats during the 35-day hyperuricemia experiment
Protocol: (§3) SD rats were stratified by weight using random number table method, and each layer was divided into a normal group (10 rats), a fructose modeling group (50 rats) and a purine modeling group (24 rats) using random number table method. Tap water was administered to the normal group; a 10% (w/v) fructose solution was administered to the fructose modeling group for modeling; and for the purine modeling group, tap water was administered for drinking, 500 mg/kg of hypoxanthine + 100 mg/kg of nicotinic acid was administered by gastric perfusion according to body weight once a day, and the volume of perfusion was 10 ml/kg. The food and water consumption of rats were recorded daily, the body weights were weighed every 7 days, and blood was taken by shearing the tail tip on the next day of weighing.
Among them, 0.5% CMC-Na was administered to the normal group and the model group by gastric perfusion, and respective drugs dissolved in 0.5% CMC-Na were administered to the other administration groups by gastric perfusion. The perfusion was performed once every morning. The dosages of administration were as follows: the dosage of benzbromarone was 20 mg/kg, the large-, medium- and small-dosages of the extract of the present disclosure were 1.9 g/kg, 0.95 g/kg, and 0.475 g/kg, respectively, the volume of administration was 15 ml/kg, and the experiment lasted for 35 days in total. During the experiment, since there was no significant difference in blood uric acid level between the purine modeling group and the normal group from beginning to end, the modeling of the hyperuricemia model in rats was not successful, therefore, the rats were not further grouped. Table 1 Gastric perfusion dosages of rats in each group
Every 7 days during the experiment, the body weights of the animals were weighed and recorded, blood was taken from the tail vein, and serum was separated by centrifugation. The uric acid (UA), urea nitrogen (BUN), creatinine (CRE), xanthine oxidase (XOD), adenosine deaminase (ADA) and guanine deaminase (GuDa) in serum were detected. On day 35 of the experiment, the 24-hour urine of the rats was collected, the urine volume was measured, the pH value was determined, and the urinary uric acid level, urinary creatinine level, and urinary urea nitrogen level were detected. After the experiment was terminated, the rats were sacrificed, and the right kidneys were taken and weighed.

[7] = Right kidney weight of rats on day 35
Protocol: as §3, with “weighing. […]” for “weighing.”
Every 7 days during the experiment, the body weights of the animals were weighed and recorded, blood was taken from the tail vein, and serum was separated by centrifugation. The uric acid (UA), urea nitrogen (BUN), creatinine (CRE), xanthine oxidase (XOD), adenosine deaminase (ADA) and guanine deaminase (GuDa) in serum were detected. On day 35 of the experiment, the 24-hour urine of the rats was collected, the urine volume was measured, the pH value was determined, and the urinary uric acid level, urinary creatinine level, and urinary urea nitrogen level were detected. […]

[8] = test system: guanine deaminase (GuDa); assay: Serum guanine deaminase activity in hyperuricemia model rats (single enzyme reagent method)
Protocol: SD rats were stratified by weight using random number table method, and each layer was divided into a normal group (10 rats), a fructose modeling group (50 rats) and a purine modeling group (24 rats) using random number table method. Tap water was administered to the normal group; a 10% (w/v) fructose solution was administered to the fructose modeling group for modeling; and for the purine modeling group, tap water was administered for drinking, 500 mg/kg of hypoxanthine + 100 mg/kg of nicotinic acid was administered by gastric perfusion according to body weight once a day, and the volume of perfusion was 10 ml/kg. The food and water consumption of rats were recorded daily, the body weights were weighed every 7 days, and blood was taken by shearing the tail tip on the next day of weighing. […] Among them, 0.5% CMC-Na was administered to the normal group and the model group by gastric perfusion, and respective drugs dissolved in 0.5% CMC-Na were administered to the other administration groups by gastric perfusion. The perfusion was performed once every morning. […] Table 1 Gastric perfusion dosages of rats in each group Every 7 days during the experiment, the body weights of the animals were weighed and recorded, blood was taken from the tail vein, and serum was separated by centrifugation. The uric acid (UA), urea nitrogen (BUN), creatinine (CRE), xanthine oxidase (XOD), adenosine deaminase (ADA) and guanine deaminase (GuDa) in serum were detected. On day 35 of the experiment, the 24-hour urine of the rats was collected, the urine volume was measured, the pH value was determined, and the urinary uric acid level, urinary creatinine level, and urinary urea nitrogen level were detected. […] In the presence of an electron acceptor and a developer, a purple red conjugate was produced, and the activity of xanthine oxidase could be calculated according to the amount of the latter produced. […] Therefore, the activity of serum adenosine deaminase could be calculated. […]

CCc1oc2ccccc2c1C(=O)c1cc(Br)c(O)c(Br)c1 [Benzbromarone, benzbromarone]
serum xanthine oxidase level ([1]; Day 21): 28.66 ± 3.75 U/L
serum xanthine oxidase level ([1]; Day 35): 20.61 ± 2.67 U/L
Serum creatinine ([2]; Day 21): 99.21 ± 17.50 µmol/L
Serum urea nitrogen ([2]; Day 21): 5.73 ± 1.02 mM
Serum creatinine ([2]; Day 35): 74.54±25.76^Δ µmol/L
Serum urea nitrogen ([2]; Day 35): 6.27 ± 1.62 mM
Serum creatinine ([2]; Day 35, listed as benzbromarone): significant decrease
Creatinine clearance [3]: 1.67 ± 1.18
Uric acid clearance [3]: 0.155 ± 0.047
24-hour Urine volume ([3]; Day 35): 117.80 ± 31.17 mL
urinary pH ([3]; Day 35): 6.70 ± 0.71
UBUN (concentration of urinary urea nitrogen) ([3]; day 35): 156.36 ± 133.40 mmol/L
UCR (concentration of urinary creatinine) ([3]; day 35): 1256.25 ± 332.40 µmol/L
UUA (concentration of urinary uric acid) ([3]; day 35): 173.57 ± 56.65 µmol/L
serum uric acid level ([4]; Day 0, modeling period): 75.83 ± 38.77 µmol/L
serum uric acid level ([4]; Day 7, modeling period): 94.75 ± 25.26 µmol/L
serum uric acid level ([4]; Day 14, modeling period): 65.57±27.48^Δ µmol/L
serum uric acid level ([4]; Day 14, modeling period, listed as benzbromarone): significant decrease
serum uric acid level ([4]; Day 21, administration period): 68.45 ± 22.20 µmol/L
serum uric acid level ([4]; Day 28, administration period): 79.65±24.68^Δ µmol/L
serum uric acid level ([4]; Day 28, administration period, listed as benzbromarone): significant decrease
serum uric acid level ([4]; Day 35, administration period): 85.66±18.37^Δ µmol/L
serum uric acid level ([4]; Day 35, administration period, listed as benzbromarone): significant decrease
serum adenosine deaminase level ([5]; Day 21): 54.22 ± 8.72 U/ml
serum adenosine deaminase level ([5]; Day 35): 97.69 ± 15.32 U/ml
body weight ([6]; Day 0, modeling period): 243.40 ± 7.63 g
body weight ([6]; Day 7, modeling period): 325.46 ± 15.10 g
body weight ([6]; Day 14, modeling period): 365.30 ± 20.19 g
body weight ([6]; Day 21, administration period): 391.83 ± 19.39 g
body weight ([6]; Day 28, administration period): 425.86 ± 22.33 g
body weight ([6]; Day 35, administration period): 433.88 ± 27.07 g
right kidney Weight [7]: 1.43 ± 0.10^ΔΔ g
serum guanine deaminase activity ([8]; Day 21): 29.46 ± 3.57^Δ U/L
serum guanine deaminase activity ([8]; Day 21, listed as benzbromarone): significant decrease
serum guanine deaminase activity ([8]; Day 35): 11.46 ± 4.83 U/L
